{
  "source": "patent EP0470794A1",
  "about": "“Process for the preparation of nitriles” (ZENECA LIMITED, priority 1990, dated 1992)",
  "key": {"[1]": {"tested_on": "angiotensin II-induced pressor responses", "assay": "Test C: antagonism of angiotensin II-induced pressor responses in vivo", "details": "Rattus norvegicus, iv; i.v. administration; rats; read-out: ED₅₀", "experimental": "In general, compounds of formula VI as defined above show significant inhibition in Test B at a final concentration of 50 micromolar or much less. Test C: This in vivo test involves using terminally-anaesthetised or conscious rats in which an arterial catheter has been implanted under anaesthesia for the measurement of changes in blood pressure. The AII antagonistic effects of the test compound following oral or parenteral administration, are assessed against angiotensin II-induced pressor responses. To ensure that the effect is specific, the effect of the test compound on vasopressin-induced pressor responses may also be determined in the same preparation."}, "[2]": {"tested_on": "AII-induced contractions of isolated rabbit aorta", "assay": "Test B: antagonism of AII-induced contractions of isolated aorta", "type": "cell-based", "details": "Oryctolagus cuniculus, 37°C, average, read-out: average pA₂ (converted)", "experimental": "In general, compounds of formula VI as defined above show significant inhibition in Test A at a concentration of 50 micromolar or much less. Test B: This in vitro test involves the measurement of the antagonistic effects of the test compound against AII-induced contractions of isolated rabbit aorta, maintained in a physiological salt solution at 37°C. In order to ensure that the effect of the compound is specific to antagonism of AII, the effect of the test compound on noradrenaline-induced contractions may also be determined in the same preparation."}},
  "data": [
    {"smiles": "Cc1cc(OCc2ccc(-c3ccccc3-c3nnn[nH]3)cc2)c2ccccc2n1.Cl", "note": "[2-methyl-4-[(2′-(1H-tetrazol-5-yl)biphenyl-4-yl)methoxy]quinoline hydrochloride]", "values": [
      {"measurement": "ED50", "setting": "[1]", "result": 0.5, "unit": "mg/kg"},
      {"measurement": "Kb", "setting": "[2]", "result": 1.12, "unit": "nM"}
    ]}
  ]
}
